Experimental data as given in US8193220B1 (priority 2009, dated 2012).
Where two headings read alike, the source gives them in different places.

What was measured:
[1] = system: eye muscles (lateral rectus muscle); assay type: in vivo, human
[2] = system: eye muscles (lateral rectus muscle); details: bupivacaine injected into eye muscles of strabismus patients; cited from earlier work
[3] = system: extensor digitorum longus muscle; details: rat hind limb extensor digitorum longus; cited from earlier work

## CCCCN1CCCCC1C(=O)Nc1c(C)cccc1C (stereo not drawn) [bupivacaine]
[1]; bupivacaine alone into lateral rectus
  change of eye alignment: ineffective in changing eye alignment
[1]; human, in vivo
  correction of strabismus: successful correction of strabismus
  length of regenerated lateral rectus muscle: shorter length
[1]; one case of esotropia, bupivacaine alone, antagonist medial rectus unopposed
  length of regenerated lateral rectus muscle: longer muscle
[1]; one case of esotropia, bupivacaine alone, first injection
  myotoxicity and weakness of the injected lateral rectus muscle: very pronounced
[2]
  effect on strabismus deviations: correction or improvement of strabismus deviations
  period of hypertrophy (growth beyond the original state) after regeneration: 20 to 30 days
  period of muscle weakness after injection: 7 to 16 days
[3]
  muscle size after injection: enlargement of the muscle beyond its original size
